Reference: ChEMBL document CHEMBL5230140, “A retrospective overview of PHGDH and its inhibitors for regulating cancer metabolism” (Eur J Med Chem, 2021)

Each molecule was assayed against T1, D-3-phosphoglycerate dehydrogenase (Homo sapiens, UniProt O43175) (assay: Inhibition of human PHGDH by fluorescence based analysis).
T1 sequence (O43175 whole entry): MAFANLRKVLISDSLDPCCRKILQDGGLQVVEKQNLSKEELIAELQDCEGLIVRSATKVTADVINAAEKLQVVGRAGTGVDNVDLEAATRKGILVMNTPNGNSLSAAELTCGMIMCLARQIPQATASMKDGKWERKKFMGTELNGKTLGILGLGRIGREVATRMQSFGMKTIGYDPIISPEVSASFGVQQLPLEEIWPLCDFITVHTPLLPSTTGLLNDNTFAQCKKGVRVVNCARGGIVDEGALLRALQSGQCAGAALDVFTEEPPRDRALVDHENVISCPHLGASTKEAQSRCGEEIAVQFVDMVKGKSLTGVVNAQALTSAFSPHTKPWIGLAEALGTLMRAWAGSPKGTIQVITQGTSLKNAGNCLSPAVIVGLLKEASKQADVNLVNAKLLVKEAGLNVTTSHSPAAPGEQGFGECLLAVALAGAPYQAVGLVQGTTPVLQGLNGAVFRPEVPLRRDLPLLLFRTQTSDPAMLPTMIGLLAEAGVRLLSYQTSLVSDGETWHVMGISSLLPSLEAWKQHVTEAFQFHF

IC50 [µM]	SMILES
0.42	CN(C(=S)SSC(=S)N(C)c1ccccc1)c1ccccc1
22.5	S=C(SSC(=S)N1CCN(Cc2ccccc2)CC1)N1CCN(Cc2ccccc2)CC1
0.36	S=C(Nc1ccccc1)SSC(=S)Nc1ccccc1
1.01	CN(C(=S)SSC(=S)N(C)C1CCCCC1)C1CCCCC1
0.38	S=C(SSC(=S)N1CCc2ccccc2C1)N1CCc2ccccc2C1
0.41	S=C(SSC(=S)N1CCN(c2ccccc2)CC1)N1CCN(c2ccccc2)CC1

The remaining lines, values behind:

SMILES	IC50 [µM]
S=C(SSC(=S)N1CCOCC1)N1CCOCC1	0.21
CC1CCN(C(=S)SSC(=S)N2CCC(C)CC2)CC1	0.58
CCN(CC)C(=S)SCSC(=S)N(CC)CC	45.9
S=C(SSC(=S)N1CCCCC1)N1CCCCC1 [BIS(PIPERIDINYLTHIOCARBONYL)DISULFIDE]	0.51
CCN(CC)C(=S)CSC(=S)N(CC)CC [(DIETHYLTHIOCARBAMOYL)METHYLENE DIETHYLCARBAMODITHIOATE]	36.4
CN1CCN(C(=S)SCSC(=S)N2CCNCC2)CC1	67.3
S=C(SSC(=S)N1CCSCC1)N1CCSCC1	0.34
S=C(SSC(=S)N1CCN(C2CCCCC2)CC1)N1CCN(C2CCCCC2)CC1	0.57
CC1CCC(C)N1C(=S)SSC(=S)N1C(C)CCC1C (configuration not stated)	0.42
CN1CCN(C(=S)SSC(=S)N2CCN(C)CC2)CC1	0.17
CCN(CC)C(=O)CSC(=S)N(CC)CC [(DIETHYLCARBAMOYL)METHYLENE DIETHYLCARBAMODITHIOATE]	> 1000
S=C(SSC(=S)N(C1CCCCC1)C1CCCCC1)N(C1CCCCC1)C1CCCCC1	1.39

These molecules were tested against T1, D-3-phosphoglycerate dehydrogenase (assay: Inhibition of human PHGDH expressed in Escherichia coli BL21 using 3-PG as substrate incubated for 30 mins by fluorescence based analysis).

IC50 [µM]	SMILES
9.76	COC(=O)[C@H](C)N1Cc2c(O)c(O)c(O)c(C)c2C1=O
1.66	C[C@H]1C(=O)OC([C@@H](O)[C@](C)(O)C2[C@@H](O)CC3C4C[C@H]5O[C@]56[C@@H](O)C=CC(=O)[C@]6(C)C4CC[C@@]32C)[C@@H]1C (some centres not stated)

These molecules were tested against T1, D-3-phosphoglycerate dehydrogenase (assay: Inhibition of human PHGDH using 3-PG as substrate by fluorescence based analysis).

SMILES	IC50 [µM]
O=C(c1ccc(Cl)cc1)N1CCOCC1 [(4-CHLOROPHENYL)(MORPHOLINO)METHANONE]	10.4

These molecules were tested against T1, D-3-phosphoglycerate dehydrogenase (assay: Binding affinity to human PHGDH (3 to 314 residues) expressed in Escherichia coli Rosetta (DE3) by isothermal titration calorimetry).

Kd [µM]	SMILES
16600	Cc1cncc(Cc2cccc(CO)c2)n1
1300	COc1ccc(NC(C)=O)cc1Cl

What follows are molecules tested against T1, D-3-phosphoglycerate dehydrogenase (assay: Inhibition of human PHGDH using 3-PG as substrate incubated for 60 mins by fluorescence based analysis).

IC50 [µM]	SMILES
> 100	O=C(c1cc(-c2ccccc2)n[nH]1)N1CCc2cc(S(=O)(=O)Nc3ncccn3)ccc21
< 50	Cc1cc(C)nc(NS(=O)(=O)c2ccc(NC(=O)c3cc(-c4ccccc4O)n[nH]3)cc2)n1

These molecules were tested against T1, D-3-phosphoglycerate dehydrogenase (assay: Binding affinity to PHGDH (unknown origin) by isothermal titration calorimetry).

Kd [µM]	SMILES
470	NC(=O)c1cc2ccccc2s1

Each molecule was assayed against T1, D-3-phosphoglycerate dehydrogenase (assay: Binding affinity to human PHGDH expressed in Escherichia coli BL21 incubated for 30 mins by MST assay).

Kd [µM]	SMILES
15.2	COC(=O)[C@H](C)N1Cc2c(O)c(O)c(O)c(C)c2C1=O
